Laboratory results: PMC9207812 (ACS chemical biology, 2022)
No end group written: not given here.

Experiments:
Assay type in all cases: binding
[1] = molecular target: T1, WDR5 F133L (Homo sapiens, UniProt P61964, F133L); assay: Biolayer interferometry (BLI), F133L; settings: for increase in KD-BLI: F133L versus native WDR5; for koff: pH 7.5, read-out: koff (dissociation rate constant); for kon: pH 7.5, read-out: kon (association rate constant)
[2] = molecular target: T2, WDR5 S218F (Homo sapiens, UniProt P61964, S218F); assay: Biolayer interferometry (BLI), S218F; settings: for koff: pH 7.5, read-out: koff (dissociation rate constant); for kon: pH 7.5, read-out: kon (association rate constant)
[3] = molecular target: T3, WDR5 D172A (Homo sapiens, UniProt P61964, D172A); assay: Biolayer interferometry (BLI), D172A; settings: for koff: pH 7.5, read-out: koff (dissociation rate constant); for kon: pH 7.5, read-out: kon (association rate constant)
[4] = molecular target: T4, WDR5 Y260H (Homo sapiens, UniProt P61964, Y260H); assay: Steady-state fluorescence polarization (FP), Y260H
[5] = molecular target: T5, WDR5 S175L (Homo sapiens, UniProt P61964, S175L); assay: Biolayer interferometry (BLI), S175L; settings: for koff: pH 7.5, read-out: koff (dissociation rate constant); for kon: pH 7.5, read-out: kon (association rate constant)
[6] = molecular target: T3, WDR5 D172A; assay: Steady-state fluorescence polarization (FP), D172A
[7] = molecular target: T6, WDR5 P216L (Homo sapiens, UniProt P61964, P216L); assay: Steady-state fluorescence polarization (FP), P216L
[8] = molecular target: T1, WDR5 F133L; assay: Steady-state fluorescence polarization (FP), F133L
[9] = molecular target: T5, WDR5 S175L; assay: Steady-state fluorescence polarization (FP), S175L
[10] = molecular target: T4, WDR5 Y260H; assay: Biolayer interferometry (BLI), Y260H; settings: for koff: pH 7.5, read-out: koff (dissociation rate constant); for kon: pH 7.5, read-out: kon (association rate constant)
[11] = molecular target: T2, WDR5 S218F; assay: Steady-state fluorescence polarization (FP), S218F
[12] = molecular target: T6, WDR5 P216L; assay: Biolayer interferometry (BLI), P216L; settings: for koff: pH 7.5, read-out: koff (dissociation rate constant); for kon: pH 7.5, read-out: kon (association rate constant)

Molecule	Kd [1]	koff [1]	Kd [2]	koff [2]	kon [2]	Kd [3]	koff [3]	kon [3]	Kd [4]	Kd [5]	koff [5]	kon [5]	Kd [6]	Kd [7]	Kd [8]	Kd [9]	koff [10]	Kd [11]	Kd [12]	koff [12]	other results
INPTGCARSEPKIL-NH2 [MLL2Win]	8300 nM	0.14 ± 0.02 s⁻¹	640 ± 20 nM	0.025 ± 0.002 s⁻¹	40000 ± 2000 M⁻¹ s⁻¹	240 ± 10 nM	0.014 ± 0.001 s⁻¹	57000 ± 6000 M⁻¹ s⁻¹	34 ± 4 nM	130 ± 10 nM	0.0063 ± 0.0001 s⁻¹	49000 ± 4000 M⁻¹ s⁻¹	25 ± 4 nM	18 ± 3 nM	2100 nM	11 ± 1 nM	0.013 ± 0.001 s⁻¹	94 ± 7 nM	200 ± 50 nM	0.011 ± 0.002 s⁻¹	increase in KD-BLI [1]: between one and two orders of magnitude; kon [1]: 16000 ± 1000 M⁻¹ s⁻¹; Kd [10]: 200 ± 20 nM; kon [10]: 66000 ± 9000 M⁻¹ s⁻¹; kon [12]: 56000 ± 8000 M⁻¹ s⁻¹
LNPHGAARAEVYLS-NH2 [MLL4Win]	≥ 100000 nM	> 1 s⁻¹	3400 nM	0.071 ± 0.001 s⁻¹	20000 ± 2000 M⁻¹ s⁻¹	1400 nM	0.051 ± 0.01 s⁻¹	37000 ± 4000 M⁻¹ s⁻¹	130 ± 10 nM	4200 nM	0.13 ± 0.004 s⁻¹	30000 ± 1000 M⁻¹ s⁻¹	78 ± 3 nM	690 ± 60 nM	8800 nM	280 ± 30 nM	0.047 ± 0.028 s⁻¹	420 ± 40 nM	9900 nM	0.22 ± 0.05 s⁻¹	kon [10]: 24000 ± 3000 M⁻¹ s⁻¹; kon [12]: 19000 ± 3000 M⁻¹ s⁻¹
LNPHGSARAEVHLS-NH2 [MLL1Win]	–	–	≥ 100000 nM	> 1 s⁻¹	–	≥ 100000 nM	> 1 s⁻¹	–	9700 nM	≥ 100000 nM	> 1 s⁻¹	–	5600 nM	> 14600 nM	> 53000 nM	4800 nM	> 1 s⁻¹	8100 nM	≥ 100000 nM	> 1 s⁻¹	Kd [10]: ≥ 100000 nM

Further molecules by falling Kd [2], results first:

Kd [1]	koff [1]	Kd [2]	koff [2]	kon [2]	Kd [3]	koff [3]	kon [3]	Kd [4]	Kd [5]	koff [5]	kon [5]	Kd [6]	Kd [7]	Kd [8]	Kd [9]	koff [10]	Kd [11]	Kd [12]	koff [12]	Molecule	other results
30000 nM	0.69 ± 0.04 s⁻¹	830 ± 110 nM	0.046 ± 0.007 s⁻¹	56000 ± 4000 M⁻¹ s⁻¹	900 ± 240 nM	0.11 ± 0.03 s⁻¹	130000 ± 10000 M⁻¹ s⁻¹	140 ± 20 nM	1400 nM	0.089 ± 0.03 s⁻¹	61000 ± 7000 M⁻¹ s⁻¹	61 ± 2 nM	39 ± 2 nM	5700 nM	92 ± 7 nM	0.098 ± 0.029 s⁻¹	100 ± 10 nM	380 ± 20 nM	0.033 ± 0.004 s⁻¹	EHQTGSARSEGYYP-NH2 [SETd1AWin]	increase in KD-BLI [1]: between one and two orders of magnitude; kon [1]: 26000 ± 3000 M⁻¹ s⁻¹; Kd [10]: 1100 nM; kon [10]: 88000 ± 13000 M⁻¹ s⁻¹; kon [12]: 86000 ± 8000 M⁻¹ s⁻¹
3700 nM	0.1 ± 0.01 s⁻¹	530 ± 20 nM	0.021 ± 0.003 s⁻¹	39000 ± 5000 M⁻¹ s⁻¹	140 ± 10 nM	0.0093 ± 0.0019 s⁻¹	65000 ± 13000 M⁻¹ s⁻¹	22 ± 2 nM	330 ± 20 nM	0.016 ± 0.002 s⁻¹	49000 ± 3000 M⁻¹ s⁻¹	12 ± 1 nM	19 ± 1 nM	1000 nM	23 ± 1 nM	0.0077 ± 0.0006 s⁻¹	80 ± 7 nM	200 ± 30 nM	0.011 ± 0.003 s⁻¹	VNPTGCARSEPKMS-NH2 [MLL3Win]	increase in KD-BLI [1]: between one and two orders of magnitude; kon [1]: 36000 ± 21000 M⁻¹ s⁻¹; Kd [10]: 110 ± 20 nM; kon [10]: 64000 ± 2000 M⁻¹ s⁻¹; kon [12]: 53000 ± 7000 M⁻¹ s⁻¹
6000 nM	0.24 ± 0.02 s⁻¹	360 ± 20 nM	0.023 ± 0.002 s⁻¹	63000 ± 6000 M⁻¹ s⁻¹	260 ± 10 nM	0.023 ± 0.003 s⁻¹	89000 ± 14000 M⁻¹ s⁻¹	23 ± 2 nM	56 ± 3 nM	0.0049 ± 0.0003 s⁻¹	84000 ± 6000 M⁻¹ s⁻¹	18 ± 1 nM	28 ± 2 nM	820 ± 30 nM	11 ± 1 nM	0.023 ± 0.003 s⁻¹	37 ± 1 nM	370 ± 40 nM	0.03 ± 0.005 s⁻¹	CC(C)[C@H](NC(=O)[C@H](Cc1c[nH]cn1)NC(=O)[C@@H](N)CCC(=O)O)C(=O)N[C@H](C(=O)NCC(=O)N[C@@H](CS)C(=O)N[C@@H](C)C(=O)N[C@@H](CCCNC(=N)N)C(=O)N[C@@H](CO)C(=O)N[C@@H](CCC(=O)O)C(=O)NCC(=O)N[C@@H](Cc1ccccc1)C(=O)N[C@@H](Cc1ccc(O)cc1)C(=O)N[C@H](C(N)=O)[C@@H](C)O)[C@@H](C)O [SETd1BWin]	increase in KD-BLI [1]: between one and two orders of magnitude; kon [1]: 43000 ± 12000 M⁻¹ s⁻¹; Kd [10]: 230 ± 10 nM; kon [10]: 100000 ± 10000 M⁻¹ s⁻¹; kon [12]: 80000 ± 8000 M⁻¹ s⁻¹
